Several values for one entry are separate records, joined by “and”; a condition that tells them apart may be missing. Identical values can stand only once.
System: WM3248 melanoma cells, 486 antibodies
Assay: Reverse phase protein arrays (RPPA)
Type: cell-based, Human
Description: Pellets were snap frozen in liquid nitrogen and shipped to MD Anderson Cancer Center core RPPA facility for RPPA analysis (Table S5). Three biological replicates for each sample were generated.
Nomenclatures on the RPPA heatmaps: name_of_antibody.species_of_antibody.status_of_antibody. V - antibody validated; C - validation of antibody in progress; Q - antibody nonspecific; E – under evaluation; antibodies raised in M - mouse, G - goat, R - rabbit, or T - rat.

CN(C)c1cccc(Nc2cc(-c3ccccc3)nc(C3CCNCC3)n2)c1 [ARN22089, N1,N1-dimethyl-N3-(6-phenyl-2-(piperidin-4-yl)pyrimidin-4-yl)benzene-1,3-diamine]
RPPA DNMT1.R.V (20 uM, single samples): 0.983 and 0.756 and 0.985 | RPPA DRP1.R.V (20 uM, single samples): 0.965 | RPPA DUSP6.R.C (20 uM, single samples): 1.060 and 1.859 and 1.429 | RPPA DYRK1B.R.C (20 uM, single samples): 1.009 and 1.052 and 0.953 | RPPA Dvl3.R.V (20 uM, single samples): 0.950 and 1.123 | RPPA E2F1.R.V (20 uM, single samples): 1.419 and 1.315 and 0.981 | RPPA E.Cadherin.R.V (20 uM, single samples): 0.828 and 1.005 | RPPA EGFR.R.V (20 uM, single samples): 1.031 and 1.102 and 1.106 | RPPA EGFR_pY1068.R.C (20 uM, single samples): 0.990 and 0.986 | RPPA EGFR_pY1173.R.V (20 uM, single samples): 1.027 and 1.077 and 1.112 | RPPA EMA.M.C (20 uM, single samples): 0.905 and 0.939 and 0.944 | RPPA ENY2.M.C (20 uM, single samples): 0.965 and 0.851 and 0.977 | RPPA ER.a.R.V (20 uM, single samples): 0.767 and 0.993 and 1.203 | RPPA ERCC1.R.C (20 uM, single samples): 1.137 and 1.100 and 0.957 | RPPA ERCC5.R.C (20 uM, single samples): 1.157 and 0.901 and 0.984 | RPPA ERRalpha.R.V (20 uM, single samples): 0.962 and 1.097 and 0.968 | RPPA EVI1.R.V (20 uM, single samples): 1.169 and 1.023 and 0.918 | RPPA Elk1_pS383.R.C (20 uM, single samples): 1.006 and 1.163 and 1.131 | RPPA Enolase.1.R.V (20 uM, single samples): 1.058 and 0.770 and 0.988 | RPPA Enolase.2.R.V (20 uM, single samples): 1.052 and 0.967 and 0.953 | RPPA EphA2.R.V (20 uM, single samples): 0.650 and 0.867 and 0.932 | RPPA EphA2_pY588.R.C (20 uM, single samples): 1.102 and 1.013 and 0.933 | RPPA Erk5.R.V (20 uM, single samples): 0.870 and 0.876 | RPPA Ets.1.R.V (20 uM, single samples): 1.428 and 0.989 | RPPA FABP5.R.C (20 uM, single samples): 1.054 and 0.987 and 1.035 | RPPA FAK.R.C (20 uM, single samples): 0.799 and 1.003 and 1.205 | RPPA FAK_pY397.R.V (20 uM, single samples): 0.986 and 1.046 and 0.989 | RPPA FANCD2.R.V (20 uM, single samples): 0.998 and 0.872 and 0.901 | RPPA FASN.R.V (20 uM, single samples): 1.033 and 0.807 and 0.695 | RPPA FGF.basic.R.C (20 uM, single samples): 0.959 and 0.928 | RPPA FN14.R.C (20 uM, single samples): 0.830 and 1.031 and 1.337 | RPPA FOXM1.R.V (20 uM, single samples): 1.401 and 0.852 and 0.917 | RPPA FOXO3.R.V (20 uM, single samples): 1.030 and 0.990 | RPPA FRS2.alpha_pY196.R.V (20 uM, single samples): 0.974 and 1.050 and 1.002 | RPPA FTO.R.V (20 uM, single samples): 1.174 and 0.828 and 0.929 | RPPA Fibronectin.R.V (20 uM, single samples): 0.643 and 1.194 and 1.130 | RPPA FoxO3a_pS318_S321.R.C (20 uM, single samples): 1.008 and 0.941 | RPPA G6PD.R.V (20 uM, single samples): 0.989 and 0.985 and 0.975 | RPPA GATA3.M.V (20 uM, single samples): 1.212 and 0.968 | RPPA GATA6.R.V (20 uM, single samples): 1.033 and 0.956 and 0.952 | RPPA GCLC.R.C (20 uM, single samples): 0.868 and 1.160 | RPPA GCLM.R.V (20 uM, single samples): 1.077 and 0.945 and 0.973 | RPPA GCN5L2.R.V (20 uM, single samples): 0.869 and 0.957 | RPPA GGPS1.M.V (20 uM, single samples): 1.005 and 0.891 and 0.957 | RPPA GRB2.R.V (20 uM, single samples): 0.953 and 0.884 and 1.030 | RPPA GRB7.R.V (20 uM, single samples): 0.848 and 1.110 and 1.171 | RPPA GSK.3B.R.C (20 uM, single samples): 0.916 and 0.817 and 0.970 | RPPA GSK.3a.b.M.V (20 uM, single samples): 1.009 and 0.884 and 0.977 | RPPA GSK.3a.b_pS21_S9.R.V (20 uM, single samples): 0.956 and 1.173 and 1.028 | RPPA Gab2.R.V (20 uM, single samples): 1.465 and 0.881 and 0.921 | RPPA Gli1.R.C (20 uM, single samples): 0.959 and 0.928 and 0.972 | RPPA Gli3.R.C (20 uM, single samples): 1.201 | RPPA Glucocorticoid.Receptor.R.V (20 uM, single samples): 1.195 and 1.220 and 0.975 | RPPA Glutamate.D1.2.R.V (20 uM, single samples): 1.284 and 0.987 and 1.014 | RPPA Glutaminase.R.C (20 uM, single samples): 1.004 and 0.974 and 1.096 | RPPA Granzyme.B.R.V (20 uM, single samples): 1.019 and 1.152 and 1.098 | RPPA Grp75.R.C (20 uM, single samples): 1.682 and 0.883 and 0.952 | RPPA Gys.R.V (20 uM, single samples): 0.810 and 1.025 and 1.174 | RPPA Gys_pS641.R.V (20 uM, single samples): 0.658 and 0.955 | RPPA H2AX_pS140.M.C (20 uM, single samples): 1.144 and 1.344 and 0.957 | RPPA HER2.M.V (20 uM, single samples): 1.022 and 0.960 | RPPA HER2_pY1248.R.V (20 uM, single samples): 1.010 and 1.097 | RPPA HER3.R.V (20 uM, single samples): 1.052 and 0.876 and 0.821 | RPPA HER3_pY1289.R.C (20 uM, single samples): 1.023 and 0.933 | RPPA HES1.R.V (20 uM, single samples): 0.979 and 1.109 and 1.059 | RPPA Heregulin.R.V (20 uM, single samples): 0.854 and 1.034 and 1.150 | RPPA eEF2.R.C (20 uM, single samples): 1.353 and 0.930 and 0.976 | RPPA eEF2K.R.V (20 uM, single samples): 1.420 and 1.250 and 1.117 | RPPA eIF4E.R.V (20 uM, single samples): 0.957 and 1.295 and 1.239 | RPPA eIF4E_pS209.R.V (20 uM, single samples): 0.903 and 1.310 | RPPA eIF4G.R.C (20 uM, single samples): 1.450 and 0.906 and 0.991 | DNMT1.R.V Norm_5 Average (5, average, normalized to 0): 1.028 | DRP1.R.V Norm_5 Average (5, average, normalized to 0): 1.024 | DUSP4.R.V Norm_5 Average (5, average, normalized to 0): 1.106 | DUSP6.R.C Norm_5 Average (5, average, normalized to 0): 1.186 | DYRK1B.R.C Norm_5 Average (5, average, normalized to 0): 0.920 | Dvl3.R.V Norm_5 Average (5, average, normalized to 0): 0.989 | E2F1.R.V Norm_5 Average (5, average, normalized to 0): 0.971 | E.Cadherin.R.V Norm_5 Average (5, average, normalized to 0): 0.851 | EGFR.R.V Norm_5 Average (5, average, normalized to 0): 1.030 | EGFR_pY1068.R.C Norm_5 Average (5, average, normalized to 0): 0.934 | EGFR_pY1173.R.V Norm_5 Average (5, average, normalized to 0): 1.022

Reference: article PMC9127750, “Structure-based design of CDC42 effector interaction inhibitors for the treatment of cancer” (Cell reports, 2022)
